Target: Toll-like receptor 2 (Homo sapiens, UniProt O60603)
Experiment: LR2 Assays
Description: Next, 50 μL of an approximate 3×EC50 concentration of each agonist (Pam2CSK4 or Pam3CSK4) was added to the wells containing test compounds or the vehicle control. The plates were then incubated at 37° C./5% CO2 for 18 h. For each assay run, non-treated HEK-Blue hTLR2 cells were treated with serial dilutions of agonists to determine EC50 values for the respective run. On day 2, secreted alkaline phosphatase (SEAP) activity was detected in cell culture supernatants. In brief, 20 μL was collected from each well and transferred to a 96-well plate. Next, 200 μL of Quanti-Blue detection reagent was added to each well. […] IC50 values were calculated based on 8-point dilutions for each compound.

Chain of Toll-like receptor 2 (O60603 whole entry): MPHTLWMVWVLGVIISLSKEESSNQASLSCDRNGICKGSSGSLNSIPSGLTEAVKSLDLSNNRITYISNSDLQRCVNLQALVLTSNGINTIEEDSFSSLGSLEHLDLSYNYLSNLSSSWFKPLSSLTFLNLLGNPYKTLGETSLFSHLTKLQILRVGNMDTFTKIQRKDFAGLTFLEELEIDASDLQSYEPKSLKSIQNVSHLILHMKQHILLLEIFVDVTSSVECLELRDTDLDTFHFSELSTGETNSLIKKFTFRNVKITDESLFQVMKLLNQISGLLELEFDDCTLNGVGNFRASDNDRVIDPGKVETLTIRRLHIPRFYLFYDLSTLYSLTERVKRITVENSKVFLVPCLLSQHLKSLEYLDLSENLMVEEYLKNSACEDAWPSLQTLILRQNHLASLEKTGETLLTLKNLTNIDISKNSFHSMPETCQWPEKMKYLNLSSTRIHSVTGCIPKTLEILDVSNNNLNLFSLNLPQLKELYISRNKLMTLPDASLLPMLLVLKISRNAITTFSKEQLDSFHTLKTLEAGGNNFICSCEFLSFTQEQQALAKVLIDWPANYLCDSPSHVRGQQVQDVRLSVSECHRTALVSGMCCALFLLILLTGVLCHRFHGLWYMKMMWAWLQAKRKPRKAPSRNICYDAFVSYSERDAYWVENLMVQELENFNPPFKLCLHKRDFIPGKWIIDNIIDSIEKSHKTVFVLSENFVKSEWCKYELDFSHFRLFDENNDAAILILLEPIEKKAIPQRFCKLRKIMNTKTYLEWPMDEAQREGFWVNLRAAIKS

O=Cc1cc(NC(=O)c2csc(N3CCCCC3)n2)cc(F)c1O [US20240043395, Compound 9]
IC50: 5.2 µM

Reference: BindingDB's records for patent US20240043395 (Neuropore Therapies, 2024)
